Test results from US20240027453A1, “METHOD FOR DETECTION AND QUANTITATIVE MONITORING OF INFECTIONS WITH HERPESVIRUSES” (The Trustees of Princeton University, priority 2020, published 2024).
Like-named read-outs stand apart in the source and are kept apart here.

Test system: HCMV
Type: cell-based
Settings: for UL47 (P16784) protein, numerical value of heatmap FIG. 6C / UL69 (P16749) protein, numerical value of heatmap FIG. 6C / UL70 (P17149) protein, numerical value of heatmap FIG. 6C / UL83 (P06725) protein, numerical value of heatmap FIG. 6C / UL132 (P69338) protein, numerical value of heatmap FIG. 6C / US15 (P09718) protein, numerical value of heatmap FIG. 6C / sp|P16810|IR12_HCMVA (P16810) protein, numerical value of heatmap FIG. 6C / DUT (P16824) protein, numerical value of heatmap FIG. 6C / TRM3 (P16732) protein, numerical value of heatmap FIG. 6C / TRX1 (P16783) protein, numerical value of heatmap FIG. 6C / TRX2 (P16728) protein, numerical value of heatmap FIG. 6C / UL24 (P16760) protein, numerical value of heatmap FIG. 6C / UL40 (P16780) protein, numerical value of heatmap FIG. 6C / UL49 (P16786) protein, numerical value of heatmap FIG. 6C / sp|P16808|IR10_HCMVA (P16808) protein, numerical value of heatmap FIG. 6C: LL
Protocol: In example herpesvirus PRM assay methods shown herein, cell pellets were lysed in 2% SDS, 100 mM NaCl, 0.5 mM EDTA, 50 mM Tris, pH 8.2, and 50 μg of protein was reduced and alkylated with 25 mM TCEP and 50 mM CAM respectively for 20 min at 70° C. Proteins were then precipitated via methanol chloroform precipitation (Wessel & Flugg, Anal Biochem. 138(1):141-143, 1984), resuspended in 50 mM HEPES, pH 8.2 and digested overnight with trypsin (50:1 protein:enzyme w/w ratio). Digested peptides were desalted by SDB-RPS StageTip as previously described (Lum et al., Cell Syst., 7(6):[…], 2018; Greco et al., Methods Mol Biol 1410:39-63, 2016; Federspiel & Cristea, Methods Mol Biol., 1977:115-143, 2019).
Peptides (1.0 μg on column) were analyzed by LC-MS/MS using a Dionex Ultimate 3000 UHPLC coupled online to an EASYSpray ion source and a Q Exactive HF. Peptides were separated on an EASYSpray C18 column (75 μm×25 cm) heated to 50° C. using a linear gradient of 5% B to 32% B over 60 min at a flow rate of 250 nL/min and were ionized at 1.7 kv. Mobile phase A consisted of 0.1% FA in H2O and mobile phase B consisted of 0.1% FA, 2.9% H2O in ACN.
The PRM method was controlled by a peptide inclusion list with retention time windows of 6 min for selected precursor ions.
The PRM assay was developed and analyzed using the open-source software Skyline (Maclean et al., Bioinformatics 26(7):966-968, 2010). Summed area under the curve of 3-4 transitions per peptide was used for quantitation. Targeted peptides were normalized to host protein loading control peptides. Peptide values for each sample were scaled to the average of each peptide across all runs. The average of multiple peptides was used as the inferred value for the protein measurement when more than one peptide was quantified (Federspiel et al., PLoS Biol. 17(9):e3000437. Doi: 10.1371/journal.pbio.3000437). PRM quantitation data were graphed using the Python Seaborn and Matplotlib libraries.
MRC5 primary human fibroblasts (HFs) (ATCC CCL-171) were used as the model system for HSV-1 and HCMV infections and were cultured in complete growth medium (DMEM supplemented with 10% fetal bovine serum and 1% penicillin-streptomycin antibiotics) at 37° C. and 5% CO2. iSLK.219 cells harboring latent KSHV (a gift from Dr. Britt Glaunsinger, University of California, Berkeley) were grown in complete growth medium supplemented with 500 μg/ml hygromycin (ThermoFisher Scientific, 10687010) at 37° C. and 5% CO2. All cells were used for experiments within a maximum of 10 passages.
Wild type HSV-1 strain 17+ (a gift from Beate Sodeik, Hannover Medical School, Hannover, Germany) was propagated as previously described (Diner et al., 2015). Briefly, PO stocks were generated by electroporating pBAC-HSV-1 into U-2 OS cells. […] In a similar manner, wild type HCMV strain AD169 was produced from BAC electroporation into HFs and working stocks were propagated by infecting HFs at a low level. In both cases, cell-associated virus was released by sonication, combined with supernatant virus, then concentrated by ultracentrifugation (20,000 rpm, 2 hours, 4° C. with SW28 swinging bucket rotor [Beckman Coulter]) over a 10% ficoll (HSV-1) or 20% sorbitol (HCMV) cushion. Virus stock titers were determined by plaque assay for HSV-1 or tissue culture infectious dose (TCID50) for HCMV and infections were performed at a multiplicity of infection (MOI) of 3.
12 hours prior to virus infection or reactivation, cells were treated with either the small molecule drug or DMSO/PBS control at an equivalent volume. […] For infection cycles lasting longer than 24 hours, small molecule drugs were re-added to the cell culture medium every 24 hours. Upon collection, cells were rinsed with PBS, scraped into a microcentrifuge tube, pelleted by centrifugation, and rinsed again with PBS.

For `Nc1ccn(C[C@@H](CO)OCP(=O)(O)O)c(=O)n1` [CDV, cidofovir], the “UL47 (P16784) protein, numerical value of heatmap FIG. 6C” value (“UL47 (P16784) protein, numerical value” for short) (timepoint 48) was 0.03052, the “UL69 (P16749) protein, numerical value of heatmap FIG. 6C” value (“UL69 (P16749) protein, numerical value” for short) (timepoint 48) was 0.2559 and the “UL70 (P17149) protein, numerical value of heatmap FIG. 6C” value (“UL70 (P17149) protein, numerical value” for short) (timepoint 48) was 0.3143. The “UL83 (P06725) protein, numerical value of heatmap FIG. 6C” value (“UL83 (P06725) protein, numerical value” for short) (timepoint 48) was 0.03791, the “UL132 (P69338) protein, numerical value of heatmap FIG. 6C” value (“UL132 (P69338) protein, numerical value” for short) (timepoint 48) was 0.1131 and the “US15 (P09718) protein, numerical value of heatmap FIG. 6C” value (from here on “US15 (P09718) protein, numerical value”) (timepoint 48) was 1.201. The “sp|P16810|IR12_HCMVA (P16810) protein, numerical value of heatmap FIG. 6C” value (“sp|P16810|IR12_HCMVA (P16810) protein” for short) (timepoint 48) was 0.2103, the “DUT (P16824) protein, numerical value of heatmap FIG. 6C” value (“DUT (P16824) protein, numerical value” for short) (timepoint 72) was 0.6275 and the “TRM3 (P16732) protein, numerical value of heatmap FIG. 6C” value (“TRM3 (P16732) protein, numerical value” below) (timepoint 72) was 0.4913. For the same compound, the “TRX1 (P16783) protein, numerical value of heatmap FIG. 6C” value (“TRX1 (P16783) protein, numerical value” below) (timepoint 72) was 0.3363, the “TRX2 (P16728) protein, numerical value of heatmap FIG. 6C” value (“TRX2 (P16728) protein, numerical value” below) (timepoint 72) was 0.3619 and the “UL24 (P16760) protein, numerical value of heatmap FIG. 6C” value (“UL24 (P16760) protein, numerical value” below) (timepoint 72) was 0.3923. The “UL40 (P16780) protein, numerical value of heatmap FIG. 6C” value (“UL40 (P16780) protein, numerical value” below) (timepoint 72) was 0.7811, the “UL47 (P16784) protein, numerical value” value (timepoint 72) was 0.4114 and the “UL49 (P16786) protein, numerical value of heatmap FIG. 6C” value (timepoint 72) was 0.5948. For the same compound, the “UL69 (P16749) protein, numerical value” value (timepoint 72) was 0.6759, the “UL70 (P17149) protein, numerical value” value (timepoint 72) was 0.743 and the “UL83 (P06725) protein, numerical value” value (timepoint 72) was 0.4276. For the same compound, the “UL132 (P69338) protein, numerical value” value (timepoint 72) was 0.4516, the “US15 (P09718) protein, numerical value” value (timepoint 72) was 0.8899 and the “sp|P16808|IR10_HCMVA (P16808) protein, numerical value of heatmap FIG. 6C” value (“sp|P16808|IR10_HCMVA (P16808) protein” below) (timepoint 72) was 0.2743. For the same compound, the “sp|P16810|IR12_HCMVA (P16810) protein” value (timepoint 72) was 0.6875, the “DUT (P16824) protein, numerical value” value (timepoint 96) was 0.7823 and the “TRM3 (P16732) protein, numerical value” value (timepoint 96) was 0.7025. For the same compound, the “TRX1 (P16783) protein, numerical value” value (timepoint 96) was 0.8409, the “TRX2 (P16728) protein, numerical value” value (timepoint 96) was 0.8413 and the “UL24 (P16760) protein, numerical value” value (timepoint 96) was 0.7085. For the same compound, the “UL40 (P16780) protein, numerical value” value (timepoint 96) was 0.7467, the “UL47 (P16784) protein, numerical value” value (timepoint 96) was 0.7604 and the “UL69 (P16749) protein, numerical value” value (timepoint 96) was 0.9032. The “UL70 (P17149) protein, numerical value” value (timepoint 96) was 0.8327, the “UL83 (P06725) protein, numerical value” value (timepoint 96) was 1.027 and the “UL132 (P69338) protein, numerical value” value (timepoint 96) was 0.6887. For the same compound, the “US15 (P09718) protein, numerical value” value (timepoint 96) was 0.6108, the “sp|P16808|IR10_HCMVA (P16808) protein” value (timepoint 96) was 0.6859 and the “sp|P16810|IR12_HCMVA (P16810) protein” value (timepoint 96) was 0.5726. For the same compound, the “DUT (P16824) protein, numerical value” value (timepoint 120) was 1.034, the “TRM3 (P16732) protein, numerical value” value (timepoint 120) was 0.9855 and the “TRX1 (P16783) protein, numerical value” value (timepoint 120) was 1.114. For the same compound, the “TRX2 (P16728) protein, numerical value” value (timepoint 120) was 1.493, the “UL24 (P16760) protein, numerical value” value (timepoint 120) was 1.171 and the “UL40 (P16780) protein, numerical value” value (timepoint 120) was 0.9491. For the same compound, the “UL47 (P16784) protein, numerical value” value (timepoint 120) was 0.9878, the “UL49 (P16786) protein, numerical value of heatmap FIG. 6C” value (timepoint 120) was 0.6463 and the “UL69 (P16749) protein, numerical value” value (timepoint 120) was 1.467. The “UL70 (P17149) protein, numerical value” value (timepoint 120) was 1.255, the “UL83 (P06725) protein, numerical value” value (timepoint 120) was 1.677 and the “UL132 (P69338) protein, numerical value” value (timepoint 120) was 0.8677. The “US15 (P09718) protein, numerical value” value (timepoint 120) was 0.4974, the “sp|P16808|IR10_HCMVA (P16808) protein” value (timepoint 120) was 0.9054 and the “sp|P16810|IR12_HCMVA (P16810) protein” value (timepoint 120) was 0.762. The “levels of HCMV IE and E proteins” value (early time points) was “decreased levels”.
